target: STAT3 (Homo sapiens, UniProt P40763); experiment: STAT3 HiBiT degradation assay in transfected A549 cells; assay type: cell-based; design: expressed in transfected cells; host or cells: A549; conditions: A549, 24 h; read-out: STAT3 HiBiT A549 degradation 24 h: Average external-Abs DC50
Procedure, shortened: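 Degradation read as HiBiT-tagged STAT3 luminescence (Nano-Glo lytic reagent, 10 min, room temperature) following 24 h compound treatment of transfected A549 cells at 3-fold, 10 points. Percent remaining signal computed against controls and fitted with a four-parameter logistic; DC50 reported as letter bins (A <0.01 to D >1.0 µM).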

STAT3, sequence (P40763 whole entry): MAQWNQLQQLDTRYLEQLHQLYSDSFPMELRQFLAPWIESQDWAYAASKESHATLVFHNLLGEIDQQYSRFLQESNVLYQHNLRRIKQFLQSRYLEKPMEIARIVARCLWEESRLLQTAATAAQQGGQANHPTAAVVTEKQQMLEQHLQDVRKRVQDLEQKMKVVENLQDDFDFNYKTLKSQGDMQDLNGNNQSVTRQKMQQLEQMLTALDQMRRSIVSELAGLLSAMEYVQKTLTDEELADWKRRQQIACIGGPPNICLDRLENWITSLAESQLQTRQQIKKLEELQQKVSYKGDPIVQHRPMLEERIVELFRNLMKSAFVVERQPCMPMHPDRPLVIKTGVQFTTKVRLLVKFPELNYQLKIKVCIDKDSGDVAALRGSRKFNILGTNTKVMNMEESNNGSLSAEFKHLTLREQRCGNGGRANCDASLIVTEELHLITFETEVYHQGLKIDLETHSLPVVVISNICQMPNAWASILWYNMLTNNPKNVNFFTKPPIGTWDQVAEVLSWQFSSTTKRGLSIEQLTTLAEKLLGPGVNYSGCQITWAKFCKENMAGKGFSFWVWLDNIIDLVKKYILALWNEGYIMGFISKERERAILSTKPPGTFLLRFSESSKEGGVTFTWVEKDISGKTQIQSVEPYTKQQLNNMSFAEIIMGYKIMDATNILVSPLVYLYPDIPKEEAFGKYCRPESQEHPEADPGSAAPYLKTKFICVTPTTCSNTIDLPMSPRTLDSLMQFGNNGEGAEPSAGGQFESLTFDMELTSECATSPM

| Compound | DC50 |
| --- | --- |
| Cc1ncsc1-c1ccc([C@H](C)NC(=O)[C@@H]2C[C@@H](O)CN2C(=O)[C@@H](NC(=O)CCCCCc2cc(Cl)cc(NC(=O)[C@H](CCC(N)=O)NC(=O)[C@@H]3Cc4cccc5c4N3C(=O)[C@@H](NC(=O)c3cc4cc(C(=O)P(=O)(O)O)ccc4[nH]3)CC5)c2)C(C)(C)C)cc1 [Compound I-257, 2-[[(2S,11S)-2-[[(1S)-3-carbamoyl-1-[[3-chloro-5-(5[[(2S)-1-[(2S,4R)-4-hydroxy-2-[[(1S)-1-[4-(4-methyl-1,3-thiazol-5-yl)phenyl]ethyl]carbamoyl]pyrrolidin-1-yl]-3,3-dimethyl-1-oxobutan-2-yl]carbamoyl]pentyl)phenyl]carbamoyl]propyl]carbamoyl]-12-oxo-1-azatricyclo[6.4.1.0^[4,13]]trideca-4(13),5,7-trien-11-yl]carbamoyl]-1H-indole-5-carbonylphosphonic acid] | 10 to 100 nM |
| Cc1cc(CCCCCC(=O)N[C@H](C(=O)N2C[C@H](O)C[C@H]2C(=O)N[C@@H](C)c2ccc(-c3scnc3C)cc2)C(C)(C)C)cc(NC(=O)[C@H](CCC(N)=O)NC(=O)[C@@H]2Cc3cccc4c3N2C(=O)[C@@H](NC(=O)c2cc3cc(C(=O)P(=O)(O)O)ccc3[nH]2)CC4)c1 [Compound I-258, 2-[[(2S,11S)-2-[[(1S)-3-carbamoyl-1-[[3-(5-[[(2S)-1-[(2S,4R)-4-hydroxy-2-[[(1S)-1-[4-(4-methyl-1,3-thiazol-5-yl)phenyl]ethyl]carbamoyl]pyrrolidin-1-yl]-3,3-dimethyl-1-oxobutan-2-yl]carbamoyl]pentyl)-5-methylphenyl]carbamoyl]propyl]carbamoyl]-12-oxo-1-azatricyclo[6.4.1.0^[4,13]]trideca-4(13),5,7-trien-11-yl]carbamoyl]-1H-indole-5-carbonylphosphonic acid] | < 10 nM |
| Cc1ncsc1-c1ccc([C@H](C)NC(=O)[C@@H]2C[C@@H](O)CN2C(=O)[C@@H](NC(=O)CCCCCc2cccc(NC(=O)[C@H](CCC(N)=O)NC(=O)[C@@H]3Cc4cccc5c4N3C(=O)[C@@H](NC(=O)c3cc4cc(C(=O)P(=O)(O)O)ccc4[nH]3)CC5)c2C)C(C)(C)C)cc1 [Compound I-259] | 100 to 1000 nM |
| Cc1ncsc1-c1ccc([C@H](C)NC(=O)[C@@H]2C[C@@H](O)CN2C(=O)[C@@H](NC(=O)CCc2cccc(OC[C@H](CCC(N)=O)NC(=O)[C@@H]3Cc4cccc5c4N3C[C@@H](CC(=O)C3Cc4cc(C(=O)P(=O)(O)O)ccc4N3)CC5)c2)C(C)(C)C)cc1 (stereo partly drawn) [Compound I-260, diammonium 2-[[(2S,11S)-2-[[(2S)-4-carbamoyl-1-[3-(2-[[(2S)-1-[(2S,4R)-4-hydroxy-2-[[(1S)-1-[4-(4-methyl-1,3-thiazol-5-yl)phenyl]ethyl]carbamoyl]pyrrolidin-1-yl]-3,3-dimethyl-1-oxobutan-2-yl]carbamoyl]ethyl)phenoxy]butan-2-yl]carbamoyl]-12-oxo-1-azatricyclo[6.4.1.0^[4,13]]trideca-4(13),5,7-trien-11-yl]carbamoyl]-1H-indole-5-carbonylphosphonate] | > 1000 nM |
| CC(=O)N1CC[C@H]2CC[C@@H](C(=O)N[C@@H](CCC(N)=O)COc3cccc(CCCCC(=O)N[C@H](C(=O)N4C[C@H](O)C[C@H]4C(=O)N[C@@H](C)c4ccc(-c5scnc5C)cc4)C(C)(C)C)c3F)N2C(=O)[C@@H](NC(=O)c2cc3cc(C(=O)P(=O)(O)O)ccc3[nH]2)C1 [Compound I-263, 2-[[(5S,8S,10aR)-3-acetyl-8-[[(2S)-4-carbamoyl-1-[2-fluoro-3-(4-[[(2S)-1-[(2S,4R)-4-hydroxy-2-[[(1S)-1-[4-(4-methyl-1,3-thiazol-5-yl)phenyl]ethyl]carbamoyl]pyrrolidin-1-yl]-3,3-dimethyl-1-oxobutan-2-yl]carbamoyl]butyl)phenoxy]butan-2-yl]carbamoyl]-6-oxo-octahydropyrrolo[1,2-a][1,5]diazocin-5-yl]carbamoyl]-1H-indole-5-carbonylphosphonic acid] | < 10 nM |
| Cc1ncsc1-c1ccc([C@H](C)NC(=O)[C@@H]2C[C@@H](O)CN2C(=O)[C@@H](NC(=O)CCCCCc2cc(F)cc(NC(=O)[C@H](CCC(N)=O)NC(=O)[C@@H]3Cc4cccc5c4N3C(=O)[C@@H](NC(=O)c3cc4cc(C(=O)P(=O)(O)O)ccc4[nH]3)CC5)c2)C(C)(C)C)cc1 [Compound I-264, 63 2-[[(2S,11S)-2-[[(1S)-3-carbamoyl-1-[[3-fluoro-5-(5-[[(2S)-1-[(2S,4R)-4-hydroxy-2-[[(1S)-1-[4-(4-methyl-1,3-thiazol-5-yl)phenyl]ethyl]carbamoyl]pyrrolidin-1-yl]-3,3-dimethyl-1-1-oxobutan-2-yl]carbamoyl]pentyl)phenyl]carbamoyl]propyl]carbamoyl]-12-oxo-1-azatricyclo[6.4.1.0^[4,13]]trideca-4(13),5,7-trien-11-yl]carbamoyl]-1H-indole-5-carbonylphosphonic acid 7] | 10 to 100 nM |
| Cc1ncsc1-c1ccc([C@H](C)NC(=O)[C@@H]2C[C@@H](O)CN2C(=O)[C@@H](NC(=O)CCCCCc2cccc(NC[C@H](CCC(N)=O)NC(=O)[C@@H]3Cc4cccc5c4N3C(=O)[C@@H](NC(=O)c3cc4cc(C(=O)P(=O)(O)O)ccc4[nH]3)CC5)c2F)C(C)(C)C)cc1 [Compound I-265, diammonium 2-[[(2S,11S)-2-[(4-carbamoyl-1-[[2-fluoro-3-(5-[[(2S)-1-[(2S,4R)-4-hydroxy-2-[[(1S)-1-[4-(4-methyl-1,3-thiazol-5-yl)phenyl]ethyl]carbamoyl]pyrrolidin-1-yl]-3,3-dimethyl-1-oxobutan-2-yl]carbamoyl]pentyl)phenyl]amino]butan-2-yl)carbamoyl]-12-oxo-1-azatricyclo[6.4.1.0^[4,13]]trideca-4(13),5,7-trien-11-yl]carbamoyl]-1H-indole-5-carbonylphosphonate] | 10 to 100 nM |
| Cc1cc(CCCCCC(=O)N[C@H](C(=O)N2C[C@H](O)C[C@H]2C(=O)N[C@@H](C)c2ccc(-c3scnc3C)cc2)C(C)(C)C)c(F)c(OC[C@H](CCC(N)=O)NC(=O)[C@@H]2Cc3cccc4c3N2C(=O)[C@@H](NC(=O)c2cc3cc(C(=O)P(=O)(O)O)ccc3[nH]2)CC4)c1 [Compound I-266, 2-[[(2S,11S)-2-[[(2S)-4-carbamoyl-1-[2-fluoro-3-(5-[[(2S)-1-[(2S,4R)-4-hydroxy-2-[[(1S)-1-[4-(4-methyl-1,3-thiazol-5-yl)phenyl]ethyl]carbamoyl]pyrrolidin-1-yl]-3,3-dimethyl-1-oxobutan-2-yl]carbamoyl]pentyl)-5-methylphenoxy]butan-2-yl]carbamoyl]-12-oxo-1-azatricyclo[6.4.1.[4,13]]trideca-4(13),5,7-trien-11-yl]carbamoyl]-1H-indole-5-carbonylphosphonic acid] | < 10 nM |
| Cc1ncsc1-c1ccc([C@H](C)NC(=O)[C@@H]2C[C@@H](O)CN2C(=O)[C@@H](NC(=O)CCCCCc2cc(F)cc(OC[C@H](CCC(N)=O)NC(=O)[C@@H]3Cc4cccc5c4N3C(=O)[C@@H](NC(=O)c3cc4cc(C(=O)P(=O)(O)O)ccc4[nH]3)CC5)c2F)C(C)(C)C)cc1 [Compound I-267] | < 10 nM |
| Cc1ncsc1-c1ccc([C@H](C)NC(=O)[C@@H]2C[C@@H](O)CN2C(=O)[C@@H](NC(=O)CCCCCc2ccnc([C@H](CCC(N)=O)NC(=O)[C@@H]3Cc4cccc5c4N3C(=O)[C@@H](NC(=O)c3cc4cc(C(=O)P(=O)(O)O)ccc4[nH]3)CC5)c2)C(C)(C)C)cc1 [Compound I-268, 2-[[(2S,11S)-2-[[(1S)-3-carbamoyl-1-[4-(5-[[(2S)-1-[(2S,4R)-4-hydroxy-2-[[(1S)-1-[4-(4-methyl-1,3-thiazol-5-yl)phenyl]ethyl]carbamoyl]pyrrolidin-1-yl]-3,3-dimethyl-1-oxobutan-2-yl]carbamoyl]pentyl)pyridin-2-yl]propyl]carbamoyl]-12-oxo-1-azatricyclo [6.4.1.0^[4,13]]trideca-4(13),5,7-trien-11-yl]carbamoyl]-1H-indole-5-carbonylphosphonic acid] | 100 to 1000 nM |
| Cn1c(=O)n(C2CCC(=O)NC2=O)c2ccc(CCCCCCOc3ccc4c5c3CC[C@H](NC(=O)c3cc6cc(C(=O)P(=O)(O)O)ccc6[nH]3)C(=O)N5[C@H](C(=O)N[C@@H](CCC(N)=O)C(=O)NC(c3ccccc3)c3ccccc3)C4)cc21 (stereo partly drawn) [Compound I-269, 2-[[(2S,11S)-2-[[(1S)-3-Carbamoyl-1-(diphenylmethylcarbamoyl)propyl]carbamoyl]-7-([6-[1-(2,6-dioxopiperidin-3-yl)-3-methyl-2-oxo-1,3-benzodiazol-5-yl]hexyl]oxy)-12-oxo-1-azatricyclo[6.4.1.0^[4,13]]trideca-4(13),5,7-trien-11-yl]carbamoyl]-1H-indole-5-carbonylphosphonic acid] | > 1000 nM |
| Cn1c(=O)n(C2CCC(=O)NC2=O)c2ccc(CCCCOc3ccc4c5c3CC[C@H](NC(=O)c3cc6cc(C(=O)P(=O)(O)O)ccc6[nH]3)C(=O)N5[C@H](C(=O)N[C@@H](CCC(N)=O)C(=O)NC(c3ccccc3)c3ccccc3)C4)cc21 (stereo partly drawn) [Compound I-270, 2-[[(2S,11S)-2-[[(1S)-3-carbamoyl-1-(diphenylmethylcarbamoyl)propyl]carbamoyl]-7-[4-[1-(2,6-dioxopiperidin-3-yl)-3-methyl-2-oxo-1,3-benzodiazol-5-yl]butoxy]-12-oxo-1-azatricyclo[6.4.1.0^[4,13]]trideca-4(13),5,7-trien-11-yl]carbamoyl]-1H-indole-5-carbonylphosphonic acid] | 100 to 1000 nM |
| Cn1c(=O)n(C2CCC(=O)NC2=O)c2ccc([C@H]3CC[C@H](CCCC(=O)N4CC[C@H]5CC[C@@H](C(=O)NC(CCC(N)=O)C(=O)NC(c6ccccc6)c6ccccc6)N5C[C@@H](NC(=O)c5cc6cc(C(=O)P(=O)(O)O)ccc6[nH]5)C4)CC3)cc21 (some centres unmarked) [Compound I-271] | 100 to 1000 nM |
| CC(=O)O[C@@H]1C[C@@H](C(=O)N[C@@H](C)c2ccc(-c3scnc3C)cc2)N(C(=O)[C@@H](NC(=O)CCCCCc2cccc(OC[C@H](CCC(N)=O)NC(=O)[C@@H]3Cc4cccc5c4N3C(=O)[C@@H](NC(=O)c3cc4cc(C(=O)P(=O)(O)O)ccc4[nH]3)CC5)c2F)C(C)(C)C)C1 [Compound I-272] | < 10 nM |
